{"source": "ChEMBL document CHEMBL1155003", "about": "“Halicyclamine A, a marine spongean alkaloid as a lead for anti-tuberculosis agent” (2008)", "key": {"[1]": {"tested_on": "Mycobacterium tuberculosis", "assay": "Antitubercular activity against Mycobacterium bovis BCG under aerobic condition after 7 days by MTT method", "type": "functional", "conditions": "variant bovis BCG, 168 h"}, "[2]": {"tested_on": "Mycobacterium tuberculosis", "assay": "Antitubercular activity against Mycobacterium bovis BCG under hypoxic condition after 14 days by MTT method", "type": "functional", "conditions": "variant bovis BCG, 336 h"}, "[3]": {"tested_on": "Mycobacterium tuberculosis", "assay": "Bactericidal activity against Mycobacterium bovis BCG assessed as decrease in CFU at 10 ug/ml after 4 weeks", "type": "functional, organism-based", "conditions": "variant bovis BCG"}}, "note": "Active and inactive are the calls of the source. No cut-off for these calls is given here.", "data": [{"smiles": "C1=C2CCCC/C=C\\C=C\\CCN3CC[C@@H]4[C@H](CCCCCC/C=C\\C=C/CCN(C2)C[C@H]14)C3", "note": "[HALICYCLAMINE A]", "values": [{"measurement": "MIC", "setting": "[1]", "result": 1, "unit": "µg/mL"}, {"measurement": "MIC", "setting": "[2]", "result": 1, "unit": "µg/mL"}, {"measurement": "Activity", "setting": "[3]", "result": "Active"}]}, {"smiles": "NNC(=O)c1ccncc1", "note": "[ISONIAZID]", "values": [{"measurement": "MIC", "setting": "[1]", "result": 0.03, "unit": "µg/mL"}, {"measurement": "MIC", "setting": "[2]", "result": "> 100", "unit": "µg/mL"}]}]}
